Consider 7 compounds from patent US20120142750A1, “INDOLEAMINE 2,3-DIOXYGENASE PATHWAYS IN THE GENERATION OF REGULATORY T CELLS” (Regents of the University of Minnesota, priority 2005, published 2012).

Strand notation (5' to 3'): a small letter for the sugar, then the base; units joined by * are phosphorothioate-linked, units joined directly phosphodiester-linked; [ ] holds rarer units or linkages, { } end groups; capitals alone tell only the bases. d = 2'-deoxy (DNA)

Data set [1] deals with BM3 T cells. As to the kind of experiment: Ex vivo T cell suppression assays with sorted Tregs from treated mice. It counts as in vivo, mouse. As to the method:
(§1) CpG Oligonucleotides. CpG-ODNs (CpG no. 1826, […]; (SEQ ID NO:4) and sequence matched non-CpG-B no. 2138, […] (SEQ ID NO:5)) with fully phosphorothioate backbones were purchased from Coley Pharmaceuticals. Mice were injected with relatively high doses of ODNs (50 μg/mouse, i/v) as described (Mellor et al. J Immunol 2005; 175:5601-5605).
1-methyl-[D]-tryptophan (1 mT). 1 mT (catalog number 45, 248-3, Sigma) was prepared as a 20 mM stock solution in 0.1 N NaOH, adjusted to pH 7.4, and stored at −20° C. protected from light. For in vitro use, 1 mT was added to MLRs to a final concentration of 100 μM. For in vivo treatment, slow-release polymer pellets (*5 mg/day) containing 1 mT or vehicle alone were inserted under the dorsal skin as described (Munn et al. Science 1998; 281:1191-1193) 24 hours before CpG treatment.
Preparative flow cytometry to sort CD4+ T cells subsets. CD4+ T cell subsets were purified using a Mo-Flo cytometer as described (Mellor et al. J Immunol 2005; 175:5601-5605; Munn et al. Immunity 2005; 22:1-10).
Ex vivo T cell suppression assays. Suppression assays were performed by adding sorted CD4+ cells to T cell proliferation assays (72 hour thymidine incorporation assays) containing responder H-2K^b-specific splenocytes from BM3 TCR transgenic mice (nylon-wool enriched) and CD11c+ splenocytes (AutoMacs enriched) from CBK (H-2K^b transgenic CBA) mice prepared as described (Mellor et al. J Immunol 2005; 175:5601-5605).

Data set [2] relates to BM3 T cells. As to the kind of experiment: Co-adoptive transfer of Tregs and BM3 T cells into CBK recipients. It counts as in vivo, mouse. To be noted: 96 hours. As to the method:
Co-Adoptive Transfer. Purified (Mo-Flo sorted) CD4+CD25+ Tregs were prepared from spleens of CBK donor mice treated 24 hours previously with either 50 μg CpG or non-CpG. Tregs (1×10^6/recipient) were mixed with nylon-wool enriched BM3 responder T cells (5×10^6/recipient) and co-injected into CBK recipients (2-3 mice/group). Positive controls were CBK mice receiving BM3 T cells without Tregs; negative controls were CBA mice (lacking target antigen) receiving BM3 T cells. After 96 hours, mice were sacrificed and spleen cells stained with antibodies against CD8 (PerCP), CD25 (APC), H2K^b (PE) and biotinylated Ti98 (BM3 anti-clonotypic antibody, visualized with streptavidin APC (Tarazona et al. (1996) International Immunology 8:351-358). Except for Ti98, all antibodies were from Pharmingen (San Diego, Calif.).

In another data set the test system is splenic Tregs. As to the kind of experiment: Flow cytometry of CHOP and FoxP3 in splenic Tregs of treated mice. It counts as in vivo, mouse. The note with it: wild-type mice. As to the method: as §1
Analytical flow cytometry. Intracellular CHOP staining was performed as described (Munn et al. (2005) Immunity 22:1-10), using antibody sc-7351 (Santa Cruz Biotechnology, Santa Cruz, Calif.).
For orientation: Flow cytometry measures light scatter and fluorescence of single cells or particles in a stream.

Data set [3] deals with PDCs and allogeneic naive CD4+ T cells. As to the kind of experiment: In vitro priming of naive CD4+ T cells by allogeneic PDCs: CD4+CD25+Foxp3+ Treg generation (flow cytometry). It counts as cell-based, human. The text has this:
PDC, B, and T cell isolation. Human PBMC were isolated under IRE-approved protocols from apheresis products of healthy blood donors (Memorial Blood Centers of Minnesota, Minneapolis, Minn.) by Ficoll-Paque density gradient centrifugation. Plasmascytoid dendritic cells (PDCs) were isolated from PBMC using BDCA-4 cell isolation kits and the MACS system, followed by staining and sorting to collect purified Lin-CD11c-CD123+ PDCs, as reported previously (Moseman et al., J Immunol 2004; 173:4433-4442). […] cells were isolated from PBMC using CD4 T cell isolation kits followed by positive selection with CD45RA microbeads. […] B cells were isolated from PBMC with CD19 microbeads and the MACS system to greater than 98% purity of CD19+ B cells. All cell isolations kits and microbeads were from Miltenyi Biotec (Bergisch Gladbach, Germany). Reagents. Phosphorothioate-modified type-A CpG ODN 2216: […] NO:2), type-B CpG ODN 2006: […] NO:3) (sequences are shown 5'-3'; small letters represent phosphorothioate linkage; capital letters represent phosphodiester linkage 3' of the base; bold represents CpGdinucleotides) were from Integrated DNA Technologies (Coralville, Iowa), diluted in PBS, and used at a final concentration of 1 microgran per milliliter (μg/ml). […] Kynurenine (L-KYN, Sigma-Aldrich) was used at a final concentration of 50 μM. In vitro priming of naive CD4+ T cells. CD4+CD45RA+ naive T cells were primed with allogeneic PDCs or irradiated B cells (30 Gy) at a 10:1 ratio (e.g., 2×10^6 naive CD4+ T cells plus 2×105 PDCs per well in 24-well plates) with ODN 2216 or ODN 2006 present in RPMI 1640 medium supplemented with 10% human AB serum. 1 MT and/or KYN were added into CpG ODN-PDC or CpG ODN-B cell mediated naive CD4+ T cell priming cultures as indicated. […] After 7 days, primed T cells in cultures were harvested, assessed for their surface phenotype, intracellular Foxp3 expression, and their function in MLR assays. […] Mean fluorescence intensity (MFI) and positive cell percentages of stained cells were determined by flow cytometry.

A further data set relates to PDCs. Kind of data set: Surface expression of CD80, CD86, HLA-DR on PDCs (flow cytometry). In kind it is cell-based, human. To be noted: CpG ODN stimulation 48 hours. The text has this:
PDC, B, and T cell isolation. Human PBMC were isolated under IRE-approved protocols from apheresis products of healthy blood donors (Memorial Blood Centers of Minnesota, Minneapolis, Minn.) by Ficoll-Paque density gradient centrifugation. Plasmascytoid dendritic cells (PDCs) were isolated from PBMC using BDCA-4 cell isolation kits and the MACS system, followed by staining and sorting to collect purified Lin-CD11c-CD123+ PDCs, as reported previously (Moseman et al., J Immunol 2004; 173:4433-4442). CD4+CD45RA+ naïve T cells were isolated from PBMC using CD4 T cell isolation kits followed by positive selection with CD45RA microbeads. The purity of naïve CD4+ T cells was greater than 95% for CD4+CD45RA+ expression and less than 0.5% for CD25+ expression. B cells were isolated from PBMC with CD19 microbeads and the MACS system to greater than 98% purity of CD19+ B cells. All cell isolations kits and microbeads were from Miltenyi Biotec (Bergisch Gladbach, Germany).
Flow Cytometry. Fluorescent antibodies (Abs) against human CD3, CD4, CD11c, CD19, CD25, CD40, CD45, CD45RA, CD45RO, CD80, CD86, CD123, HLA-DR, lineage (Lin) markers, and isotype control Abs were from BD Biosciences (San Diego, Calif.). […] Mean fluorescence intensity (MFI) and positive cell percentages of stained cells were determined by flow cytometry.

For another data set, the system named is IDO protein in PDCs. Kind of data set: Western blot for IDO protein in cultured PDCs. To be noted: 48 hours culture with CpG ODN. It counts as cell-based, human. As to the method: Western blots. Protein lysates were prepared from 2×10^5 fresh or cultured PDCs or B cells. Western blot was performed with antibody specific for IDO protein
(Immunoblotting shows a protein as a band on a membrane.)

Data set [4] concerns primed CD4+ T cells / naive CD4+ T cells. As to the kind of experiment: MLR assays of function of CpG-PDC or CpG-B cell primed CD4+ T cells. In kind it is cell-based, human. The note with it: KYN added to priming MLRs containing 1MT. As to the method: In vitro priming of naive CD4+ T cells. CD4+CD45RA+ naive T cells were primed with allogeneic PDCs or irradiated B cells (30 Gy) at a 10:1 ratio (e.g., 2×10^6 naive CD4+ T cells plus 2×105 PDCs per well in 24-well plates) with ODN 2216 or ODN 2006 present in RPMI 1640 medium supplemented with 10% human AB serum. 1 MT and/or KYN were added into CpG ODN-PDC or CpG ODN-B cell mediated naive CD4+ T cell priming cultures as indicated. In some experiments, blocking Abs against CD80, CD86, HLA-DR or the control IgG Ab (R&D Systems, Minneapolis, Minn.) were added to CpG-PDC-mediated naive CD4+ T cell priming cultures at a final Ab concentration ranging from 0.1 to 10 μg/ml. After 7 days, primed T cells in cultures were harvested, assessed for their surface phenotype, intracellular Foxp3 expression, and their function in MLR assays.
MLR assays. […] In all T cell proliferation assays, plates were incubated at 37° C. for 5 days and pulsed with 1 μCi of 3H-thymidine per well for the last 18 hours before harvesting. All determinations were carried out in triplicate and 3H-thymidine incorporation was determined.

For the next data set, the system named is OT-I and A1 T cells. As to the kind of experiment: Bystander-suppression assays (TDLN IDO+ DCs, OT-I, Tregs, A1 bystander cells). In kind it is cell-based, mouse. As to the method: Isolation of tumor-draining lymph node DCs.
Bystander-suppression assays. All experiments were repeated 3-5 times unless otherwise indicated. OT-I cells were sorted as CD8^+ spleen cells, gated on the CD11c^NEGB220^NEG fraction to exclude DCs. Sorted DCs from TDLN were mixed with 1×10^5 responder cells at a 1:40 ratio in V-bottom culture wells (Nunc). […] Sorted CD4^+ A1 cells (1×10^5) and CD11c^+ DCs (1:40 ratio) from normal CBA spleen were added as bystander cells. […] For transwell assays, 96-Multiwell insert plates (1 uM pore size, BD Falcon) were used and the number of cells in all groups was doubled.
Feeder layer. Plasmacytoid DCs and Tregs have been reported to require survival factors to maintain viability and function in vitro.
Readouts for T cell proliferation. […] After 72 hours, assays were stained for CD4 vs CD8 and CFSE fluorescence analyzed gated on CD4^+ (A1) and CD8^+ (OT-I) populations.
Anti-CD3 proliferation and preactivation assays. […] For pre-activation studies, 2×10^4 Tregs were cultured with 1×10^5T-depleted spleen cells plus 0.1 ug/ml αCD3 antibody and 200 U/ml IL-2 (R&D Systems) for 48 hours.

Another data set relates to auto-reactive T cells. The note with it: cited from earlier work.
For data set [5], the system named is experimental autoimmune encephalomyelitis. To be noted: mouse model; cited from earlier work.
The next data set relates to Lewis Lung carcinoma. The note with it: Lewis Lung carcinoma model; cited from earlier work.
Data set [6] relates to P815 transfected with IDO. The note with it: concomitant administration; cited from earlier work.

On to “non-CpG: sequence matched non-CpG ODN TCCATGAGCTTCCTGAGCTT (SEQ ID NO:5) (DNA dT*dC*dC*dA*dT*dG*dA*dG*dC*dT*dT*dC*dC*dT*dG*dA*dG*dC*dT*dT)”, for which, in the data set on BM3 T cells [1] (IDO-KO mice), the “suppressor functions of purified Tregs from IDO-KO mice” value is “no significant increase in suppressor functions”. Also, the “suppression of BM3 T cell proliferation by purified Tregs from treated mice” value in the data set with BM3 T cells [1] (mice treated 24 hours, 50 μg/mouse i/v, IDO-WT, 72 hour thymidine incorporation) is “did not suppress BM3 proliferation”. The “spleen tissue pathology after co-transfer of Tregs from treated donor mice” value in the data set with BM3 T cells [2] is “did not prevent extensive tissue pathology”. Further, the “clonal expansion of BM3 T cells in vivo after co-transfer of Tregs from treated donor mice” value in the data set with BM3 T cells [2] (donors treated 24 hours with 50 μg) is reported as “did not inhibit”. In addition, the “number of CHOP+ Tregs over basal levels” value in the data set on splenic Tregs is given as “only slightly increased”.

For “ODN 2216: Phosphorothioate-modified type-A CpG ODN gGGGACGATCGTCgggggG (SEQ ID NO:2) (DNA dG*dGdGdGdAdCdGdAdTdCdGdTdCdG*dG*dG*dG*dG*dG)”, in data set [3] (day 7 of cultures, CpG ODN 1 μg/ml, mean±SD, 5.7±3.1% without CpG ODN), the “frequency of PDC-induced CD4+CD25+Foxp3+ Tregs” value turned out to be 21.6±5.2%. In addition, the “cell surface expression of CD80, CD86, HLA-DR on PDCs” value in the data set on PDCs was “upregulate cell surface expression”. Also, the “IDO expression of PDCs during culture” value with IDO protein in PDCs is “sustained their IDO expression”.

Turning to `Nc1ccccc1C(=O)CC(N)C(=O)O` (stereo not shown) [KYN, Kynurenine], the “CD4+CD25+Foxp3+ Treg generation in priming MLRs containing 1MT” value in data set [3] (KYN 50 μM added with 1MT 250 μM, ODN 2216-PDC, day 7) is recorded as “restored CD4+CD25+Foxp3+ Treg generation”. For the same compound, in data set [4], the “functional suppressor activity of PDC-primed T cells in MLR” value is on record as “restored the generation of functional suppressor activity” and the “hyporesponsiveness of primed T cells to alloantigen stimulation in MLR” value is on record as “restored”. The “bystander suppression with excess kynurenine when IDO blocked with 1MT” value with OT-I and A1 T cells (1MT+25 uM kynurenine) is given as “did not recapitulate suppression”.

Consider `COc1ccc(C=CC(=O)Nc2ccccc2C(=O)O)cc1OC` [3,4-DAA, N-(3,4,-Dimethoxycinnamoyl)anthranilic acid], for which the “inflammatory cytokine production by auto-reactive T cells” value in the data set with auto-reactive T cells was “inhibit inflammatory cytokine production”. The “paralysis in experimental autoimmune encephalomyelitis” value in [5] was “reverse paralysis”.

Regarding `Cn1cc(C[C@H](N)C(=O)O)c2ccccc21` [Inhibitor 1-MT, 1-methyl-tryptophan], in the data set on Lewis Lung carcinoma, the tumor outgrowth entry is reported as “significantly delayed tumor outgrowth”. The “IDO-mediated prevention of P815 rejection by pre-immunized hosts” value in data set [6] was “substantially reversed”.

Take `N[C@@H](Cc1c[nH]c2ccccc12)C(=O)O` [tryptophan]: in the data set with OT-I and A1 T cells (not in transwells, thymidine incorporation/CFSE, tryptophan 10× (250 uM)), the “IDO-induced bystander suppression, effect of added agent” value was “abrogated suppression”.

Regarding `Nc1c(O)cccc1C(=O)O` [3-hydroxyanthranilic acid], the “inflammatory cytokine production by auto-reactive T cells” value in the data set with auto-reactive T cells is listed as “inhibit inflammatory cytokine production”. The “paralysis in experimental autoimmune encephalomyelitis” value in [5] is recorded as “reverse paralysis”.
